Measurements from patent US7320867B2, “Linker compound, ligand, and producing method thereof” (Japan Science and Technology Agency, priority 2000, dated 2008).

Legend:
[1] = target: bovine serum albumin (BSA) (Bos taurus, UniProt P02769); assay: SPR examination of nonspecific (hydrophobic) interaction between ligand-introduced chip and protein; type: binding; settings: BSA 1 mg/mL in PBS pH 7.4, 60 μL at 15 μL/min, 25° C.
[2] = target: recombinant von Willebrand's Factor (rvWF) (Homo sapiens, UniProt P04275); assay: SPR measurement of binding between ligand-introduced chip and rvWF; settings: for Kd: read-out: Dissociation constant KD
Description: That is, by the procedure described below, a ligand (Compound 14) was immobilized on a surface of a glass substrate with a thin gold film deposited thereon, and the binding behavior of Compound 14 with a recombinant von Willebrand's Factor (hereinafter abbreviated to rvWF), which is a heparin binding protein, was observed.
First, a sensor chip (manufactured by Japan Laser Electronics Co., Ltd.), prepared by depositing a gold film of 50 nm thick on a glass substrate of 13 mm×20 mm×0.7 mm, was placed in a UV ozone washer (product name: NL-UV253, Japan Laser Electronics Co., Ltd.), and was exposed to ultraviolet rays for 20 minutes so as to wash the gold surface of the sensor chip with ozone. Subsequently, the sensor chip was mounted on a Teflon™ cell holder in a cell. The cell, to which 50 μL of a methanol solution containing 0.1 mM of Compound 14 was added, was sealed and then gently shaken overnight at room temperature with a Bio Dancer (product name, New Brunswick Scientific Co., Ltd.). Thereafter, the cell was washed six times with 100 μL of methanol, and the sensor chip was removed from the Teflon™ cell holder. The removed sensor chip was then immersed in a Petri dish full of methanol and washed twice by gently shaking the Petri dish. Thereafter, the sensor chip was washed with water and methanol in this order in the same manner as described above, so as to obtain a ligand-introduced chip (ligand carrier). The ligand carrier was air-dried and then mounted on a sensor chip cartridge (glass prism) of a surface plasmon resonance apparatus SPR670 (product name, Japan Laser Electronics Co., Ltd.).
Except that an rvWF solution was used instead of the BSA solution (5-2) injected onto the ligand-introduced chip (obtained in 5-1), the same procedure as in (5-2) was carried out to inject the rvWF solution onto the surface of the ligand-introduced chip. It is to be noted that rvWF was dissolved in the running buffer so as to prepare an rvWF solution with a concentration of 125 nM to 1600 nM.
The rvWF solution was injected onto the surface of the ligand-introduced chip at varying concentrations, and a response (RU; response unit) based on bonding between Compound 14 and rvWF was measured as a function of injection time (sec) of the rvWF solution using the surface plasmon resonance apparatus. […]
In addition, a dissociation constant (KD), a binding rate constant (ka), and a dissociation rate constant (kd) were calculated, using software attached to the surface plasmon resonance apparatus (SPR670), based on a result (FIG. 1) yielded by observing the binding behavior of Compound 14 (ligand) with rvWF.
Then, except that the Compound 25 was used instead of the Compound 14, the procedure in (5-1) of Example 5 was followed to obtain a ligand-introduced chip. […] Thereafter, according the procedure in (5-3) of Example 5, the rvWF solution was injected onto the surface of the ligand-introduced chip, and changes in resonance angle as a function of injection time of the rvWF solution was measured using the surface plasmon resonance apparatus, so as to examine the binding behavior of Compound 25 with rvWF.
In addition, a dissociation constant (KD), a binding rate constant (ka), and a dissociation rate constant (kd) were calculated, based on FIG. 2, according to the procedure in (5-3) of Example 5.

[3] = ligand immobilized on gold sensor chip, rvWF 125 nM to 1600 nM in PBS pH 7.4, 25° C., calculated with SPR670 software

recombinant von Willebrand's Factor (rvWF), sequence (P04275 23-2813): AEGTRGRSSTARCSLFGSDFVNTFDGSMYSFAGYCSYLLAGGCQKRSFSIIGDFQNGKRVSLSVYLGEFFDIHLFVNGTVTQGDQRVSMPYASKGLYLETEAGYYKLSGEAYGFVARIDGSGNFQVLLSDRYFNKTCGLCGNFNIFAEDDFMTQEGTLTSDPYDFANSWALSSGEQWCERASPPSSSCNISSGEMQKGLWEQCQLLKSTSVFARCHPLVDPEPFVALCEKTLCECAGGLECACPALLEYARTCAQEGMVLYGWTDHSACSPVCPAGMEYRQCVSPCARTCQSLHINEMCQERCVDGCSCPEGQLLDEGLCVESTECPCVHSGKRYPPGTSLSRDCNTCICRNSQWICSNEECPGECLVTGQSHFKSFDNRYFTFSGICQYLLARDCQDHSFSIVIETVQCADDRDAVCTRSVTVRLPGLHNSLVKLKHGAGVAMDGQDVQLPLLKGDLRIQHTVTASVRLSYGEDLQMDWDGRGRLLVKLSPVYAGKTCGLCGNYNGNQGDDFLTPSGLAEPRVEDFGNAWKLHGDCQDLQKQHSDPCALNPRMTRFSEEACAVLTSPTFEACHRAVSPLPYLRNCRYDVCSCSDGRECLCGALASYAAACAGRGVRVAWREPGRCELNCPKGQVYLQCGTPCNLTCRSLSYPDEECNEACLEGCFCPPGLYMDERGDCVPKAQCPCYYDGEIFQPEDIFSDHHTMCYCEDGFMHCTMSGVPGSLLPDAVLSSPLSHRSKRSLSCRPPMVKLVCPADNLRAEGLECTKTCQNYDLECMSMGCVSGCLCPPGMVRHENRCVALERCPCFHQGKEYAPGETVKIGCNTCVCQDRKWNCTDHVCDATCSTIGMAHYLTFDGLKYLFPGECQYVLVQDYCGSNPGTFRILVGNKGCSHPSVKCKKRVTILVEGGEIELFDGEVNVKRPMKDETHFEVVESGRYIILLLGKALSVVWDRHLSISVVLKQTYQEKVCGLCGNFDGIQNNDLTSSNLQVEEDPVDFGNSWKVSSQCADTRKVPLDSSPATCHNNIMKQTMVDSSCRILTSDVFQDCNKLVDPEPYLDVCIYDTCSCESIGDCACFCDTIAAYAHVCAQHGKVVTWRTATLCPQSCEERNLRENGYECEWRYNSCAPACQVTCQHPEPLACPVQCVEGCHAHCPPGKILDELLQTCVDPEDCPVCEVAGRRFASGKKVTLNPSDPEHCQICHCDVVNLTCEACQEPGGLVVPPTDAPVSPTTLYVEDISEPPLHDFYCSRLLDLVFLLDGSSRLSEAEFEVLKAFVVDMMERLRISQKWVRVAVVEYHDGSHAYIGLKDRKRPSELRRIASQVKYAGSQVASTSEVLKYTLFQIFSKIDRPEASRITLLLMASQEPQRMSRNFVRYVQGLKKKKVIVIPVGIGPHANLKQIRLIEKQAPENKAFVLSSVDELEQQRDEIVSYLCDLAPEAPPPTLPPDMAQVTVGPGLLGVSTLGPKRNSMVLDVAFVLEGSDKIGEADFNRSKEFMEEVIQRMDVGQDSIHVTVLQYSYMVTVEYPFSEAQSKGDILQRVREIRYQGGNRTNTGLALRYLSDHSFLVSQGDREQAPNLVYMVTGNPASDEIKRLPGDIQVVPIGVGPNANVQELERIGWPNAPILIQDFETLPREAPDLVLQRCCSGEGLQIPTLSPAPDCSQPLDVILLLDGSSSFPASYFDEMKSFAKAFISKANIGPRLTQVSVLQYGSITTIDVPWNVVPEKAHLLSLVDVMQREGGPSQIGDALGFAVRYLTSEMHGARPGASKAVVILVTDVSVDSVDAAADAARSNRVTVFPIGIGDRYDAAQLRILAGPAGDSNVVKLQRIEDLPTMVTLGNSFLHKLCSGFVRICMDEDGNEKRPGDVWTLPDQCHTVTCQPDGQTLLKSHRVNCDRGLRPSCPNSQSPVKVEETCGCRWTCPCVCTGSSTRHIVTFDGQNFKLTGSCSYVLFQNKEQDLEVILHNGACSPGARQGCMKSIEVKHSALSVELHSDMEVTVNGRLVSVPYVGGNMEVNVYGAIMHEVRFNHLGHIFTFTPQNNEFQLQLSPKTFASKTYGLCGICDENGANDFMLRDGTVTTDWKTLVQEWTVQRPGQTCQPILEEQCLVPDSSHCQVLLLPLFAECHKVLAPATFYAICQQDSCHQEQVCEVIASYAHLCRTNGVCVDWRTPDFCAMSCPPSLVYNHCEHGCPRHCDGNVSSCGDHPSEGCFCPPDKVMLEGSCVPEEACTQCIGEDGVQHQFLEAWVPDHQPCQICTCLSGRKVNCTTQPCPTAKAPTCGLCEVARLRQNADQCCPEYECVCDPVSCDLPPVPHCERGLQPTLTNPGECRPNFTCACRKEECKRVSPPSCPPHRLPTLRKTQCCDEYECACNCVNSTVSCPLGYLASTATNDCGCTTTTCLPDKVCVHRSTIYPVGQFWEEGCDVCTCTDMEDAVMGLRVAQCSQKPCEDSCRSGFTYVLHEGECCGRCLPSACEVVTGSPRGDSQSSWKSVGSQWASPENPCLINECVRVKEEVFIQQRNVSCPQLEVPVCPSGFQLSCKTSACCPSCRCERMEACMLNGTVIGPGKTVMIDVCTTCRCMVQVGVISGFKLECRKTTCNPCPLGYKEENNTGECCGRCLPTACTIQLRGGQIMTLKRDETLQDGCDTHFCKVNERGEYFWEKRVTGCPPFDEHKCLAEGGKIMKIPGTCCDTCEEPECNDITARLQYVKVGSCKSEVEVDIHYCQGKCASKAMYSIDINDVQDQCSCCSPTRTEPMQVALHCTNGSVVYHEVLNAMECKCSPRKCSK
bovine serum albumin (BSA), sequence (P02769 25-607): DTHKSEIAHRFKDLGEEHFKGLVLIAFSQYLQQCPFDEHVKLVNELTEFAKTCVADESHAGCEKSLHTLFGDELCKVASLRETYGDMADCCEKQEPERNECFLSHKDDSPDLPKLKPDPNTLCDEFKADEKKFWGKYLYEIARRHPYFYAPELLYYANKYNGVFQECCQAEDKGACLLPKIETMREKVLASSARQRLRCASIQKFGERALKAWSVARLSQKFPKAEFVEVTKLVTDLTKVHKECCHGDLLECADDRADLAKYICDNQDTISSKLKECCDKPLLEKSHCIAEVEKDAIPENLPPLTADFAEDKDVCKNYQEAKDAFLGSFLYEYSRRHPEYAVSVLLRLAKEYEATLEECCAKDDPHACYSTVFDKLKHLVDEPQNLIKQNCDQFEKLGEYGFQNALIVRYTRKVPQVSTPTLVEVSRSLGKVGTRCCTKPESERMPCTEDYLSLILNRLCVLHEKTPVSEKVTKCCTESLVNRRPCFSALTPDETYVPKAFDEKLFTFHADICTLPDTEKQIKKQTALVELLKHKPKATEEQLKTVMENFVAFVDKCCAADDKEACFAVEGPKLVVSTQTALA

Nonspecific interaction based on hydrophobic interaction (resonant angle change) [1]	Affinity for rvWF compared with ligand-introduced chip using Compound 25 ([2]; comparison from Table 1)	Kd [2, 3] [µM]	kon ([2]; ligand immobilized on gold sensor chip, rvWF 125 nM to 1600 nM in PBS pH 7.4, 25° C., calculated with SPR670 software, read-out: Binding rate constant ka) [M⁻¹ s⁻¹]	koff ([2]; ligand immobilized on gold sensor chip, rvWF 125 nM to 1600 nM in PBS pH 7.4, 25° C., calculated with SPR670 software, read-out: Dissociation rate constant kd) [s⁻¹]	SMILES
almost no resonant angle change	higher affinity for rvWF	1.2			COC1C(COS(=O)(=O)O)OC(OC2C(C(=O)O)OC(OCC(O)C(O)C(O)C(O)CNc3cccc(NC(=O)CCC(CCC(=O)Nc4cccc(NCC(O)C(O)C(O)C(O)COC5OC(C(=O)O)C(OC6OC(COS(=O)(=O)O)C(OC)C(O)C6NS(=O)(=O)O)C(O)C5OS(=O)(=O)O)c4)(CCC(=O)Nc4cccc(NCC(O)C(O)C(O)C(O)COC5OC(C(=O)O)C(OC6OC(COS(=O)(=O)O)C(OC)C(O)C6NS(=O)(=O)O)C(O)C5OS(=O)(=O)O)c4)NC(=O)CNC(=O)CCCCC4CCSS4)c3)C(OS(=O)(=O)O)C2O)C(NS(=O)(=O)O)C1O (stereo not shown) [Compound 14]
no nonspecific interaction		2.6	8380	0.0219	COC1C(COS(=O)(=O)O)OC(OC2C(C(=O)O)OC(OCC(O)C(O)C(O)C(O)CNc3cccc(NC(=O)CCCCC4CCSS4)c3)C(OS(=O)(=O)O)C2O)C(NS(=O)(=O)O)C1O (stereo not shown) [Compound 25]
